Measurements taken from patent US10087178B2, “Substituted spiropyrido[1,2-a]pyrazine derivative and medicinal use thereof as HIV integrase inhibitor” (priority 2012, dated 2018).
pEC50: −log10 of the molar value. Counter-ions that a name gives are not always drawn. Like-named read-outs stand apart in the source and are kept apart here.

Tested on: HIV-1 NL4-3 strain
Assay: Evaluation of antiviral activity: acute infection system of MT-4 cell with HIV-1 NL4-3 strain
Type: cell-based

Compound	pEC50 (Human immunodeficiency virus 1, NL43, MT4, 120 h, read-out: antiviral activity (EC50), MT-4 cells infected with HIV-1 NL4-3 strain (MOI 0.05), cultured 5 days, Cell Titer-Glo)	pEC50 (MT-4 cells infected with HIV-1 NL4-3 strain (MOI 0.05), cultured 5 days, Cell Titer-Glo, read-out: antiviral activity (EC50))
COC[C@@H]1C[C@]12Cn1cc(C(=O)NCc3cccc(Cl)c3F)c(=O)c(O)c1C(=O)N2C [Example T50, (1R,2R)-N-(3-chloro-2-fluorobenzyl)-9′-hydroxy-2-(methoxymethyl)-2′-methyl-1′,8′-dioxo-1′,2′,4′,8′-tetrahydrospiro[cyclopropane-1,3′-pyrido[1,2-a]pyrazine]-7′-carboxamide hydrochloride]	8.43	
N-(3-chloro-2-fluorobenzyl)- 9′-hydroxy-cis-3-methoxy-2′- methyl-1′,8′-dioxo- 1′,2′,4′,8′- tetrahydrospiro[cyclobutane- 1,3′-pyrido[1,2-a]pyrazine]- 7′-carboxamide hydrochloride [Example S63]		8.40
